Laboratory results as given in patent US7968097B2, “Identification of Hla-A2-presented T-cell epitopes derived from the oncofoetal antigen-immature laminin receptor protein and uses thereof” (Immatics Biotechnologies GmbH, priority 2005, dated 2011).
“And” between values parts separate entries of the source, which are not always exact repeats. Identical values can stand only once. “Also recorded” adds a separate entry of the source.

Legend:
[1] = tested on: tumor cells from CLL patients; experiment: 51Chromium release assay, peptide-specific CTL on tumor cells from CLL patients; assay type: cell-based, human; details: for A*02-positive CLL patients in whom the peptide is a tumor-associated antigen: summary of two experiments; for recognition of CLL cells from A*02-negative patients by peptide-specific T cells / recognition of CLL cells from A*02-positive patients by peptide-specific T cells: two experiments
Description: (§1) CTL derived from healthy HLA-A*0201^+ individuals were generated using a protocol described elsewhere (Zeis M, Siegel S, Schmitz M et al. Induction of cytotoxic T lymphocytes against hematologic neoplasms by survivin RNA-transfected dendritic cells. J Immunol. 2003; 170, 5391-5397.). For the induction of autologous OFA/ILR, peptide-specific CTL obtained from patients with AML and CLL, CD8^+ T cells were separated from PBMC using immunomagnetic beads (MACS®, Miltenyi, Bergisch-Gladbach, Germany), cultured with autologous OFA/iLR peptide-pulsed fully matured DC and restimulated with autologous peptide-pulsed PBMC in the presence of IL-2 (1 ng/ml, CellConcepts, Weisskirch, Germany). After at least four weekly restimulations, CTL reactivity was determined in a conventional 4 h ^51Chromium release assay. Cold target inhibition assays and antibody blocking experiments were performed as previously described (Zeis M, Siegel S, Schmitz M et al. Induction of cytotoxic T lymphocytes against hematologic neoplasms by survivin RNA-transfected dendritic cells. J Immunol. 2003; 170, 5391-5397.).
T cells specific for HLA-A*02-restricted ILR1 were tested on tumor cells from CLL patients (5 patients; samples CLL-01, -02, -03, -05, -06). […] The experiment was repeated (FIG. 3A) with 8 more CLL patients, of whom 4/8 were A*02-positive. […] In summary: • 1. ILR1 is a tumor-associated antigen in 100% (7/7) of A*02-positive CLL patients tested. • 2. ILR1 is restricted by HLA-A*02. Target: T2
T cells specific for HLA-A*02-restricted ILR2 were tested on tumor cells from CLL patients (8 patients; samples CLL-01, -02, -03, -04, -05, -06, -07, -08). […] The experiment was repeated (FIG. 9B) with 5 more CLL patients, of whom 3/5 were A*02-positive. […] Conclusion-and-summary: • 1. ILR2 is a tumor associated antigen in 100% (7/7) of A*02-positive CLL patients tested. • 2. ILR2 is restricted by HLA-A*02. Target: T2

[2] = tested on: PBMC of HLA-A*02 positive myeloma patients; experiment: IFN-γ ELISPOT, myeloma patients; details: for # of positively stained spots (IFN-γ ELISPOT): Myeloma patients, HLA-A*02 positive, one value per patient (table line), T cells cultured seven days with IL-2; for samples with significant (>20) CTL responses against peptide: myeloma patient samples, IFN-γ ELISPOT
Method: (§2) To determine the frequency of OFA/iLR peptide-specific T cells in patients, ELISPOT-assays were performed using the Interferon-γ-ELISPOT-Kit (Becton Dickinson, Heidelberg, Germany) according to manufacturer's instructions.
(§3) Prior to analysis, T cells from patients and healthy donors had been kept in culture for seven days in the presence of Interleukin-2 (IL microgram/10^6 PBMC/milliliter).

[3] = tested on: PBMC of HLA-A*02 positive CLL patients; experiment: IFN-γ ELISPOT, CLL patients; details: for samples with significant (>20) CTL responses against peptide: CLL patient samples, IFN-γ ELISPOT; for # of positively stained spots (IFN-γ ELISPOT): CLL patients, HLA-A*02 positive, one value per patient (table line), T cells cultured seven days with IL-2
Method: as §2, §3

HLA-A*0201 = target: T1, HLA-A*0201 (Homo sapiens, UniProt P04439, /I218V/L300P/L318F/N151K/N90K/P208A/P217A/Q86G/Q94H/R138H/R169H/T345S); experiment: T2 whole cell-binding assay (in vitro reconstitution assay, TAP-deficient T2 cell line); details: compared with the Flu nucleoprotein58-66
T1 construct: using the TAP (transporter associated with antigen processing)-deficient T2 cell line; host or cells: T2 (human, TAP-deficient)

[4] = tested on: PBMC of HLA-A*02 positive healthy donors; experiment: IFN-γ ELISPOT, healthy donors; details: healthy donors, HLA-A*02 positive; one value per donor (table line); T cells cultured seven days with IL-2
Method: as §2, §3

[5] = tested on: T cells of HLA-A*0201+ patients with hematological malignancies; experiment: IFN-γ ELISPOT, pooled HLA-A*0201+ AML, CLL and multiple myeloma patients; assay type: cell-based, human; details: 50 HLA-A*0201+ patients with hematological malignancies
Method: To determine the frequency of iLR1- and iLR2-specific T cells in HLAA*0201^+ AML, CLL and multiple myeloma patients, ELISPOT IFNI’ secretion assay (Tables 3-5) were performed.

peptide-pulsed T2 cells = experiment: Lysis of peptide-pulsed T2 target cells by peptide-specific CTL (peptide titration); assay type: cell-based, human; details: for affinity of peptide-specific CTL to the peptide/MHC complex: peptide titration curves
[6] = tested on: PBMC of HLA-A*02 positive AML patients; experiment: IFN-γ ELISPOT, AML patients; details: for samples with significant (>20) CTL responses against peptide: AML patient samples, IFN-γ ELISPOT; for # of positively stained spots (IFN-γ ELISPOT): AML patients, HLA-A*02 positive, one value per patient (table line), T cells cultured seven days with IL-2
Method: as §2, §3

[7] = tested on: hematological tumor cell lines (K562, IM9, Karpas-422, Balm-3, U266, REH, Ramos, MEC-1); experiment: 51Chromium release assay, peptide-specific CTL on tumor cell lines; assay type: cell-based, human; details: for cytolytic activity of peptide-specific CTL lines: HLA-A*0201+ hematological tumor lines, primary malignant AML blasts and CLL cells; for recognition of cell lines by peptide-specific T cells: K562, IND/IM9, Karpas-422, Balm-3, U266, REH, MEC-1, Ramos also for ILR2
Description: as §1
T cells recognizing the ILR1-peptide were tested on K562 [human pro-erythroblastic leukemia cell-line, also known as chronic myelogenous leukemia (CML) cell line, which, due to extremely low levels of HLA, functions as a control for excluding NK cells as effector cells], IND (human B lymphoblastoid cell line), Karpas-422 (human B cell lymphoma), Balm-3 (human non-Burkitt B-lymphoma cell line), U266 (human multiple myeloma), REH (Human B cell precursor leukemia), MEC-1 (human chronic B cell leukemia). The same T cells were used to test autologous and allogeneic PBMC from healthy donors as controls. […] The response is not directed against allogeneic major or minor histocompatibility complex antigens. • 3. ILR1 peptide is recognized in an HLA-restricted fashion. • 4. The restriction is allele-specific (specific for A*02). Target: AML
T cells recognizing the ILR2-peptide (FIG. 6) were tested on K562 [human proerythroblastic leukemia cell-line, also known as chronic myelogenous leukemia (CML) cell line, which, due to extremely low levels of HLA, functions as a control for excluding NK cells as effector cells], IM9 (human B lymphoblastoid cell line), Karpas-422 (human B cell lymphoma), Balm-3 (human non-Burkitt B-lymphoma cell line), U266 (human multiple myeloma), REH (Human B cell precursor leukemia), Ramos (synonym: RA 1; a human Burkittt's lymphoma B lymphoblast), MEC-1 (human chronic B cell leukemia). The same T cells were used to test autologous and allogeneic PBMC from healthy donors as controls.

[8] = tested on: CD8+ T cells of HLA-A*0201+ individuals; experiment: Generation of peptide-specific CTL lines with peptide-pulsed matured DC; assay type: cell-based, human; details: for generation of CTL lines from healthy HLA-A*0201+ donors: fully matured DC pulsed with the peptide; for generation of autologous peptide-specific CTL lines from patients: one patient with CLL and another with AML, tested against autologous and allogeneic HLA-A2-matched target cells
Description: The identification of T-helper cell epitopes of tumor associated antigens remains an important task in anti-tumor immunotherapy. To identify T cell-binding epitopes deduced from the OFA-iLR protein, 14 peptides were synthesized (see below) that were predicted by the computer programs PAProC (http://www.uni-tuebingen.de/uni/kxi/) and SYFPEITHY (http://www.syfpeithi.de) to bind to the HLA-A*0201 molecule.
as §1

Sequence: ALCNTDSPL (listed as Homo sapiens) [ILR2]
- A*02-positive CLL patients in whom the peptide is a tumor-associated antigen [1]: 100%
- recognition of CLL cells from A*02-negative patients by peptide-specific T cells [1]: not recognized in any case (0/4) and 0/2 A*02-negative target cells were recognized
- recognition of CLL cells from A*02-positive patients by peptide-specific T cells [1]: recognized in all cases (4/4); also recorded: CLL cells from 3/3 A*02-positive patients were recognized
- # of positively stained spots (IFN-γ ELISPOT) [2]: 0 per 105 PBMC (4×) and 1 per 105 PBMC (2×) and 3 per 105 PBMC (2×) and 34 per 105 PBMC (3×) and 27 per 105 PBMC and 23 per 105 PBMC and 112 per 105 PBMC
- samples with significant (>20) CTL responses against peptide [2]: 43%
- median numbers of positively stained CTL compared to responses to Influenza Matrix recall-antigen [3]: 55%
- samples with significant (>20) CTL responses against peptide [3]: 56%
- # of positively stained spots (IFN-γ ELISPOT) [3]: 4 per 105 PBMC and 45 per 105 PBMC and 65 per 105 PBMC and 128 per 105 PBMC and 67 per 105 PBMC and 23 per 105 PBMC and 27 per 105 PBMC and 78 per 105 PBMC and 56 per 105 PBMC and 0 per 105 PBMC (5×) and 2 per 105 PBMC and 57 per 105 PBMC
- binding affinity to HLA-A*0201 (HLA-A*0201): strong binding affinity
- # of positively stained spots (IFN-γ ELISPOT) [4]: 0 per 105 PBMC (5×) and 3 per 105 PBMC (2×) and 2 per 105 PBMC and 4 per 105 PBMC (3×) and 5 per 105 PBMC (2×) and 6 per 105 PBMC and 7 per 105 PBMC
- patients with significant levels of peptide-specific T cells [5]: 40%
- recognition/lysis of T2 cells pulsed with the peptide (peptide-pulsed T2 cells; effectors: T cells specific for ILR2): lysed in a dose-dependent fashion
- affinity of peptide-specific CTL to the peptide/MHC complex (peptide-pulsed T2 cells): high affinity
- samples with significant (>20) CTL responses against peptide [6]: 47%
- # of positively stained spots (IFN-γ ELISPOT) [6]: 0 per 105 PBMC (4×) and 1 per 105 PBMC (2×) and 3 per 105 PBMC (2×) and 34 per 105 PBMC (3×) and 27 per 105 PBMC and 23 per 105 PBMC and 112 per 105 PBMC and 32 per 105 PBMC
- cytolytic activity of peptide-specific CTL lines [7]: strong cytolytic activity
- recognition of cell lines by peptide-specific T cells [7]: All cell lines except Ramos and MEC-1, which do not express the HLA-A*02 allele, and K562, which is deficient for HLA class I gene expression in general, were recognized
- generation of CTL lines from healthy HLA-A*0201+ donors [8]: CTL lines could be generated
- generation of autologous peptide-specific CTL lines from patients [8]: could be generated eliciting efficient cytotoxic activity

Sequence: LLAARAIVAI (listed as Homo sapiens) [ILR1]
- A*02-positive CLL patients in whom the peptide is a tumor-associated antigen [1]: 100%
- recognition of CLL cells from A*02-negative patients by peptide-specific T cells [1]: recognized in any case (0/2) and 0/4 A*02-negative target cells were recognized
- recognition of CLL cells from A*02-positive patients by peptide-specific T cells [1]: recognized-in-all cases (3/3); also recorded: CLL cells from 4/4 A*02-positive patients were recognized
- # of positively stained spots (IFN-γ ELISPOT) [2]: 3 per 105 PBMC and 4 per 105 PBMC and 56 per 105 PBMC (2×) and 76 per 105 PBMC and 43 per 105 PBMC and 22 per 105 PBMC and 23 per 105 PBMC (2×) and 0 per 105 PBMC (2×) and 112 per 105 PBMC and 1 per 105 PBMC
- samples with significant (>20) CTL responses against peptide [2]: 57%
- median numbers of positively stained CTL compared to responses to Influenza Matrix recall-antigen [3]: 76%
- samples with significant (>20) CTL responses against peptide [3]: 60%
- # of positively stained spots (IFN-γ ELISPOT) [3]: 4 per 105 PBMC and 56 per 105 PBMC (2×) and 77 per 105 PBMC and 88 per 105 PBMC and 122 per 105 PBMC and 45 per 105 PBMC and 35 per 105 PBMC and 0 per 105 PBMC (4×) and 1 per 105 PBMC and 2 per 105 PBMC and 3 per 105 PBMC and 68 per 105 PBMC and 100 per 105 PBMC and 83 per 105 PBMC and 121 per 105 PBMC and 93 per 105 PBMC
- binding affinity to HLA-A*0201 (HLA-A*0201): strong binding affinity
- # of positively stained spots (IFN-γ ELISPOT) [4]: 0 per 105 PBMC (5×) and 3 per 105 PBMC (2×) and 2 per 105 PBMC and 4 per 105 PBMC (3×) and 5 per 105 PBMC (2×) and 6 per 105 PBMC and 7 per 105 PBMC
- patients with significant levels of peptide-specific T cells [5]: 50%
- recognition/lysis of T2 cells pulsed with the peptide (peptide-pulsed T2 cells; effectors: T cells specific for ILR1): lysed in a dose-dependent fashion
- affinity of peptide-specific CTL to the peptide/MHC complex (peptide-pulsed T2 cells): high affinity
- samples with significant (>20) CTL responses against peptide [6]: 40%
- # of positively stained spots (IFN-γ ELISPOT) [6]: 2 per 105 PBMC (3×) and 3 per 105 PBMC (2×) and 1 per 105 PBMC (2×) and 4 per 105 PBMC and 5 per 105 PBMC and 56 per 105 PBMC and 54 per 105 PBMC and 34 per 105 PBMC (2×) and 33 per 105 PBMC and 25 per 105 PBMC
- cytolytic activity of peptide-specific CTL lines [7]: strong cytolytic activity
- recognition of cell lines by peptide-specific T cells [7]: All cell lines except MEC-1, which does not express the HLA-A*02 allele, and K562, which is deficient for HLA class I gene expression in general, were recognized
- generation of CTL lines from healthy HLA-A*0201+ donors [8]: CTL lines could be generated
- generation of autologous peptide-specific CTL lines from patients [8]: could be generated eliciting efficient cytotoxic activity
